{
  "source": "patent US4684630A",
  "about": "“Method of parenterally delivering drugs and related compositions” (priority 1985, dated 1987)",
  "key": {"[1]": {"type": "physicochemical", "details": "for time for which ara-AC has proven stable: neat, higher temperatures (e.g., 50°-60° C.)", "procedure": "(§1) Two neat, anhydrous solutions of ara-AC dissolved in DMSO and DMA, respectively, were prepared. […] Ara-AC has a solubility of approximately 20 mg/ml in water. The effective dose for ara-AC is 700 mg. […] At higher temperatures (e.g., 50°-60° C.), the ara-AC has proven stable for at least 3 weeks. Thus, the solutions of ara-AC in DMSO and DMA appear to be stable enough for commercial production, handling, and storage. By contrast, a solution of ara-AC in water would degrade 10% in 1.8 hours at 25° C."}, "[2]": {"assay": "Degradation kinetics of ara-AC in aqueous and mixed organic-aqueous solvent systems at 25° C. (reverse phase HPLC)"}, "[3]": {"assay": "Precipitation on further dilution of the organic-aqueous solutions with sterile intravenous solutions", "type": "physicochemical", "details": "solutions of Example 3 diluted with 5% dextrose-0.45% saline or 0.9% saline; 250 ml/hr vehicle, 6 ml/hr drug solution, 12 hours", "procedure": "The organic-aqueous solutions of Example 3 are further diluted with two standard sterile intravenous solutions: a 5% dextrose-0.45% saline solution and a 0.9% saline solution. The aqueous delivery vehicles were delivered at a rate of 250 ml/hr. The concentrated drug solutions (approx. 10 mg/ml) were introduced through a side arm tubing located several inches above the injection point for 12 hours at the rate of 6 ml/hr. measured by a calibrated infusion pump. […] At this rate, the effective dosage concentration per unit volume of the final organic-aqueous solution was approximately 1 mg/ml. The final diluted organic-aqueous solutions were filtered using Wattman filter paper."}, "[4]": {"assay": "physchem", "type": "physicochemical", "procedure": "as §1"}, "[5]": {"details": "Buffer (phosphate 0.01 M, pH 7.0, μ = 0.1 with NaCl), ara-AC 0.25 mg/ml, measured pH 7.0, 25° C."}, "[6]": {"details": "Distilled H2O, ara-AC 0.25 mg/ml, measured pH 6.8, 25° C."}},
  "note": "Where two headings read alike, the source gives them in different places.",
  "data": [
    {"smiles": "Nc1ncn([C@@H]2O[C@H](CO)[C@@H](O)[C@@H]2O)c(=O)n1", "note": "[ara-AC, 5-azacytosine arabinoside]", "values": [
      {"measurement": "degradation during 5 months", "setting": "[1]", "value": "no observable degradation"},
      {"measurement": "time for which ara-AC has proven stable", "setting": "[1]; anhydrous DMA solution", "value": "at least 3 weeks"},
      {"measurement": "time for which ara-AC has proven stable", "setting": "[1]; anhydrous DMSO solution", "value": "at least 3 weeks"},
      {"measurement": "t90", "setting": "[2]; 5% DMA in Buffer (phosphate 0.01 M, pH 6.8), ara-AC 5.0 mg/ml, apparent pH 7.0, 25° C.", "value": 1.9, "unit": "h"},
      {"measurement": "t90", "setting": "[2]; 5% DMSO in Buffer (phosphate 0.01 M, pH 6.8), ara-AC 5.0 mg/ml, apparent pH 7.0, 25° C.", "value": 2.0, "unit": "h"},
      {"measurement": "t90", "setting": "[2]; 10% DMA in Buffer (phosphate 0.01 M, pH 6.8), ara-AC 5.0 mg/ml, apparent pH 7.1, 25° C.", "value": 2.2, "unit": "h"},
      {"measurement": "t90", "setting": "[2]; 10% DMSO in Buffer, ara-AC 5.0 mg/ml, apparent pH 7.1, 25° C.", "value": 2.5, "unit": "h"},
      {"measurement": "t90", "setting": "[2]; 25% DMA in Buffer (phosphate 0.01 M, pH 6.8), ara-AC 5.0 mg/ml, apparent pH 7.4, 25° C.", "value": 2.7, "unit": "h"},
      {"measurement": "t90", "setting": "[2]; 25% DMSO in Buffer, ara-AC 5.0 mg/ml, apparent pH 7.4, 25° C.", "value": 2.8, "unit": "h"},
      {"measurement": "t90", "setting": "[2]; 50% DMA in Buffer (phosphate 0.01 M, pH 6.8), ara-AC 5.0 mg/ml, apparent pH 8.1, 25° C.", "value": 4.5, "unit": "h"},
      {"measurement": "t90", "setting": "[2]; 55% DMA in Buffer (phosphate 0.01 M, pH 6.8), ara-AC 5.0 mg/ml, apparent pH 8.3, 25° C.", "value": 6.0, "unit": "h"},
      {"measurement": "t90", "setting": "[2]; 60% DMA in Buffer (phosphate 0.03 M, pH 6.0, μ = 0.3 M with NaCl), ara-AC 5.0 mg/ml, apparent pH 7.4, 25° C.", "value": 15.0, "unit": "h"},
      {"measurement": "t90", "setting": "[2]; 60% DMSO in Buffer (phosphate 0.03 M, pH 6.0, μ = 0.3 M with NaCl), ara-AC 5.0 mg/ml, apparent pH 7.8, 25° C.", "value": 16.0, "unit": "h"},
      {"measurement": "t90", "setting": "[2]; 65 wt. % DMA-35 wt. % water solution", "value": 16.0, "unit": "h"},
      {"measurement": "t90", "setting": "[2]; 70% DMSO in H2O, ara-AC 5.0 mg/ml, apparent pH 8.0, 25° C.", "value": 28.0, "unit": "h"},
      {"measurement": "t90", "setting": "[2]; 70 wt % DMSO-30 wt. % water solution", "value": 28.0, "unit": "h"},
      {"measurement": "Kobs (observed degradation rate constant)", "setting": "[2]; [5]", "value": "1.55 × 10^-2 hr.^-1"},
      {"measurement": "t90", "setting": "[2]; [5]", "value": 1.7, "unit": "h"},
      {"measurement": "Kobs (observed degradation rate constant)", "setting": "[2]; [6]", "value": "1.34 × 10^-2 hr.^-1"},
      {"measurement": "t90", "setting": "[2]; [6]", "value": 1.8, "unit": "h"},
      {"measurement": "t90 (10% decomposition in water)", "setting": "[2]; water, 25° C.", "value": 1.8, "unit": "h"},
      {"measurement": "precipitation or other undesirable effects", "setting": "[3]", "value": "No precipitation or other undesirable effects"},
      {"measurement": "solubility", "setting": "[4]; dma, organic solvent or mixture", "value": 170, "unit": "mg/mL"},
      {"measurement": "solubility", "setting": "[4]; dmso, organic solvent or mixture", "value": 370, "unit": "mg/mL"},
      {"measurement": "solubility", "setting": "[4]; water", "value": "~20", "unit": "mg/mL"}
    ]},
    {"smiles": "Nc1ncn([C@@H]2O[C@H](CO)[C@@H](O)[C@H]2O)c(=O)n1", "note": "[5-AC, 5-azacytidine]", "values": [
      {"measurement": "precipitation or other undesirable effects", "setting": "[3]", "value": "No precipitation or other undesirable effects"}
    ]}
  ]
}
